Experimental data as given in patent US6355799B1, “Substituted benzene compounds, process for their preparation, and herbicidal and defoliant compositions containing them” (ISK Americas Incorporated, priority 1997, dated 2002).

Assays:
Format in all cases: in vivo
[1] = test system: upland rice (Oryza sp., var. Tebonnet, RICE); experiment: Post-emerge test, crop safety; settings: post-emerge, 14 days after application, rating scale 0-100
Outline: (§1)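 Compounds in acetone were track-sprayed at 15-1000 g ai/ha (187 l/ha) on sandy loam pots: pre-emerge one day after seeding, post-emerge at 2-3 leaf stage with 0.25% v/v non-ionic surfactant. Phytotoxicity was rated 14 days later on a 0 (no damage) to 100 (complete death) scale.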

[2] = test system: field corn (Zea mays L., var. Dekalb 535, CORN); experiment: Post-emerge test, crop safety; settings: post-emerge, 14 days after application, rating scale 0-100
Outline: as §1

[3] = test system: johnsongrass (Sorghum halepense, SORHA); experiment: Pre-emerge test, greenhouse herbicide activity screening; settings: rated 14 days after application, 0 = no damage, 100 = complete death
Outline: as §1

[4] = test system: sicklepod (Cassia obtusifolia, CASOB); experiment: as above; settings: rated 14 days after application, 0 = no damage, 100 = complete death
Outline: as §1

[5] = test system: velvetleaf (Abutilon theophrasti, ABUTH); experiment: as above; settings: rated 14 days after application, 0 = no damage, 100 = complete death
Outline: as §1

[6] = test system: green foxtail (Setaria viridis, SETVI); experiment: as above; settings: rated 14 days after application, 0 = no damage, 100 = complete death
Outline: as §1

[7] = test system: ivyleaf morningglory (Ipomoea hederacea, IPOHE); experiment: as above; settings: rated 14 days after application, 0 = no damage, 100 = complete death
Outline: as §1

[8] = test system: lambsquarters (Chenopodium album, CHEAL); experiment: as above; settings: rated 14 days after application, 0 = no damage, 100 = complete death
Outline: as §1

[9] = test system: barnyardgrass (Echinochloa crus-galli, ECHCG); experiment: as above; settings: rated 14 days after application, 0 = no damage, 100 = complete death
Outline: as §1

[10] = test system: common ragweed (Ambrosia artemisizfolia L., AMBEL); experiment: as above; settings: rated 14 days after application, 0 = no damage, 100 = complete death
Outline: as §1

[11] = test system: large crabgrass (Digitaria sanguinalis, DIGSA); experiment: as above; settings: rated 14 days after application, 0 = no damage, 100 = complete death
Outline: as §1

[12] = test system: johnsongrass (Sorghum halepense, SORHA); experiment: Post-emerge test, greenhouse herbicide activity screening; settings: post-emerge, 14 days after application, rating scale 0-100
Outline: (§2)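 Compounds in acetone were track-sprayed at 187 l/ha, 15–1000 g ai/ha, onto sandy loam pots. Pre-emerge seeds were sown one day before spraying, with surface watering afterwards. Post-emerge plants were at the 2–3 leaf stage and sprayed with 0.25% v/v non-ionic surfactant. Injury was rated 0–100 at 14 days.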

[13] = test system: redroot pigweed (Amaranthus retroflexus, AMARE); experiment: as above; settings: post-emerge, 14 days after application, rating scale 0-100
Outline: as §2

[14] = test system: sicklepod (Cassia obtusifolia, CASOB); experiment: as above; settings: post-emerge, 14 days after application, rating scale 0-100
Outline: as §2

[15] = test system: velvetleaf (Abutilon theophrasti, ABUTH); experiment: as above; settings: post-emerge, 14 days after application, rating scale 0-100
Outline: as §2

[16] = test system: green foxtail (Setaria viridis, SETVI); experiment: as above; settings: post-emerge, 14 days after application, rating scale 0-100
Outline: as §2

[17] = test system: ivyleaf morningglory (Ipomoea hederacea, IPOHE); experiment: as above; settings: post-emerge, 14 days after application, rating scale 0-100
Outline: as §2

[18] = test system: lambsquarters (Chenopodium album, CHEAL); experiment: as above; settings: post-emerge, 14 days after application, rating scale 0-100
Outline: as §2

[19] = test system: barnyardgrass (Echinochloa crus-galli, ECHCG); experiment: as above; settings: post-emerge, 14 days after application, rating scale 0-100
Outline: as §2

[20] = test system: common ragweed (Ambrosia artemisizfolia L., AMBEL); experiment: as above; settings: post-emerge, 14 days after application, rating scale 0-100
Outline: as §2

[21] = test system: large crabgrass (Digitaria sanguinalis, DIGSA); experiment: as above; settings: post-emerge, 14 days after application, rating scale 0-100
Outline: as §2

[22] = test system: upland rice (Oryza sp., var. Tebonnet, RICE); experiment: Pre-emerge test, crop safety; settings: rated 14 days after application, 0 = no damage, 100 = complete death
Outline: (§3)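 Sandy loam pots; pre-emerge: sown 1 d pre-spray, surface-watered after, then bottom-watered. Post-emerge: sown 8–21 d before, 2–3 leaf stage, + 0.25% v/v NIS, bottom-watered. Acetone, 187 l/ha track spray, 15–1000 g ai/ha. 0–100 injury score, day 14.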

[23] = test system: field corn (Zea mays L., var. Dekalb 535, CORN); experiment: Pre-emerge test, crop safety; settings: rated 14 days after application, 0 = no damage, 100 = complete death
Outline: as §3

[24] = test system: redroot pigweed (Amaranthus retroflexus, AMARE); experiment: Pre-emerge test, greenhouse herbicide activity screening; settings: rated 14 days after application, 0 = no damage, 100 = complete death
Outline: as §3

## COc1c(Cl)cc(F)c(-n2c(=O)cc(C(F)(F)F)n(N)c2=O)c1NC(=O)c1ccc(F)cc1F [2-44]
[1]; 63 g ai/ha
  phytotoxicity rating RICE: 0
[1]; 250 g ai/ha
  phytotoxicity rating RICE: 10
[2]; 63 g ai/ha
  phytotoxicity rating CORN: 0
[2]; 250 g ai/ha
  phytotoxicity rating CORN: 20
[3]; 63 g ai/ha
  Pre-emerge Herbicidal Activity, phytotoxicity rating (0-100), SORHA: 50
[3]; 250 g ai/ha
  Pre-emerge Herbicidal Activity, phytotoxicity rating (0-100), SORHA: 95
[4]; 63 g ai/ha
  Pre-emerge Herbicidal Activity, phytotoxicity rating (0-100), CASOB: 60
[4]; 250 g ai/ha
  Pre-emerge Herbicidal Activity, phytotoxicity rating (0-100), CASOB: 100
[5]; 63 g ai/ha
  Pre-emerge Herbicidal Activity, phytotoxicity rating (0-100), ABUTH: 100
[5]; 250 g ai/ha
  Pre-emerge Herbicidal Activity, phytotoxicity rating (0-100), ABUTH: 100
[6]; 63 g ai/ha
  Pre-emerge Herbicidal Activity, phytotoxicity rating (0-100), SETVI: 90
[6]; 250 g ai/ha
  Pre-emerge Herbicidal Activity, phytotoxicity rating (0-100), SETVI: 100
[7]; 63 g ai/ha
  Pre-emerge Herbicidal Activity, phytotoxicity rating (0-100), IPOHE: 90
[7]; 250 g ai/ha
  Pre-emerge Herbicidal Activity, phytotoxicity rating (0-100), IPOHE: 100
[8]; 63 g ai/ha
  Pre-emerge Herbicidal Activity, phytotoxicity rating (0-100), CHEAL: 100
[8]; 250 g ai/ha
  Pre-emerge Herbicidal Activity, phytotoxicity rating (0-100), CHEAL: 100
[9]; 63 g ai/ha
  Pre-emerge Herbicidal Activity, phytotoxicity rating (0-100), ECHCG: 30
[9]; 250 g ai/ha
  Pre-emerge Herbicidal Activity, phytotoxicity rating (0-100), ECHCG: 99
[10]; 63 g ai/ha
  Pre-emerge Herbicidal Activity, phytotoxicity rating (0-100), AMBEL: 100
[10]; 250 g ai/ha
  Pre-emerge Herbicidal Activity, phytotoxicity rating (0-100), AMBEL: 100
[11]; 63 g ai/ha
  Pre-emerge Herbicidal Activity, phytotoxicity rating (0-100), DIGSA: 60
[11]; 250 g ai/ha
  Pre-emerge Herbicidal Activity, phytotoxicity rating (0-100), DIGSA: 100
[12]; 63 g ai/ha
  phytotoxicity rating SORHA: 0
[12]; 250 g ai/ha
  phytotoxicity rating SORHA: 30
[13]; 63 g ai/ha
  phytotoxicity rating AMARE: 50
[13]; 250 g ai/ha
  phytotoxicity rating AMARE: 90
[14]; 63 g ai/ha
  phytotoxicity rating CASOB: 20
[14]; 250 g ai/ha
  phytotoxicity rating CASOB: 70
[15]; 63 g ai/ha
  phytotoxicity rating ABUTH: 100
[15]; 250 g ai/ha
  phytotoxicity rating ABUTH: 100
[16]; 63 g ai/ha
  phytotoxicity rating SETVI: 0
[16]; 250 g ai/ha
  phytotoxicity rating SETVI: 50
[17]; 63 g ai/ha
  phytotoxicity rating IPOHE: 50
[17]; 250 g ai/ha
  phytotoxicity rating IPOHE: 100
[18]; 63 g ai/ha
  phytotoxicity rating CHEAL: 60
[18]; 250 g ai/ha
  phytotoxicity rating CHEAL: 90
[19]; 63 g ai/ha
  phytotoxicity rating ECHCG: 0
[19]; 250 g ai/ha
  phytotoxicity rating ECHCG: 10
[20]; 63 g ai/ha
  phytotoxicity rating AMBEL: 60
[20]; 250 g ai/ha
  phytotoxicity rating AMBEL: 90
[21]; 63 g ai/ha
  phytotoxicity rating DIGSA: 0
[21]; 250 g ai/ha
  phytotoxicity rating DIGSA: 10
[22]; 63 g ai/ha
  Pre-emerge phytotoxicity rating (0-100), crop damage, RICE: 20
[22]; 250 g ai/ha
  Pre-emerge phytotoxicity rating (0-100), crop damage, RICE: 80
[23]; 63 g ai/ha
  Pre-emerge phytotoxicity rating (0-100), crop damage, CORN: 10
[23]; 250 g ai/ha
  Pre-emerge phytotoxicity rating (0-100), crop damage, CORN: 70
[24]; 63 g ai/ha
  Pre-emerge Herbicidal Activity, phytotoxicity rating (0-100), AMARE: 100
[24]; 250 g ai/ha
  Pre-emerge Herbicidal Activity, phytotoxicity rating (0-100), AMARE: 100
